From patent US12404332B2, “Methods for diagnosing and treating cancers” (Research Development Foundation, priority 2020, dated 2025)

Columns and labels:
ID8agg cells = experiment: Chk1 inhibitor synthetic lethality with ceftazidime, ID8agg cells; type: cell-based, mouse
Experimental: (§1) Additional experiments were performed, as follows. MB49 were plated at 2,000 cells/well in 96 well flat bottom plates and treated with PD-L1 depleting drugs, olaparib (2.5 μM), and combination for 96 hours. RT4 were plated at 2,000 cells/well in 96 well flat bottom plates and treated with cefepime, rabusertib (1 μM), praxasertib, or combination for 96 hours. ID8agg, 4T1, and B16 cells were plated on fibronectin at 500 cells/well and treated with cefepime, rabusertib, or combination for 96 hours. Normalized treatment combination to DDR inhibitor alone, and PD-L1 depleting drug to vehicle alone (DMSO) were evaluated.

PD-L1 = experiment: Tumor cell PD-L1 depletion by drugs (flow cytometry, immunoblot); type: cell-based, human and mouse; conditions: summary statement
Experimental: High throughput Screening: B16 PD-L1 RFP cells were treated with 2.5 and 10 μM compounds from the Prestwick and LOPAC Libraries for 48 hours using the Agilent Bravo liquid pipetting platform. Then, cells were washed with PBS, and fixed with 4% paraformaldehyde (Electron Microscopy Sciences, Hatsfield, PA, Cat 15714S) and labeled with 2 μg/ml DAPI, (Molecular Probes, Cat D1306) and 1 μg/ml Cell Mask-Blue (Invitrogen, Cat. H32720). Plates were then imaged using the Operetta High Content Imaging System, Perkin Elmer, Waltham (DAPI and Cell Mask Blue, Ex 360-400, Em 410-480), and the RFP channels (Ex 520-550, Em 560-630) channels. Agents effecting ≥2-fold PD-L1 reduction in the RFP reporter without loss of ≥20% cell viability were candidate PD-L1 depletion agents.
Flow cytometry: Mice were sacrificed by cervical dislocation after induction of deep isoflurane anesthesia. ID8agg tumors were collected and cells were stained as described (Derup et al., 2020) using LSR II hardware and analyzed by FACS Diva (BD Bioscience) or Flow Jo software (Flow Jo, LLC). Anti-mouse (clone 10F.9G2) and human (clone 29E.2A3) PD-L1 [both PE/Cy7, Cat #124314 (mouse) 329718 (human)] were matched with isotype control. Apoptosis assessment used Annexin V and propidium iodide (Thermo Scientific) per manufacturer instruction.
Western blotting and immunoprecipitation: To prepare whole cell lysates, cells were harvested and lysed in RIPA (radioimmunoprecipitation assay) buffer plus 1 mM phenylmethylsulphonyl fluoride and Halt protease/phosphatase inhibitor cocktail (Thermo Scientific) at 4° C. Protein concentrations were measured by BCA Protein Assay Kit (Thermo Scientific). Protein was run on precast 4-15% sodium dodecyl sulfate polyacrylamide gels (Bio-Rad), transferred to polyvinylidene fluoride membranes (GE Water and Process Technologies), and then blocked in 5% non-fat milk for 1 hour at room temperature. The membranes were then incubated with 1:1000 diluted primary antibodies against indicated proteins (Cell Signaling). Specific antibody binding was detected by chemiluminescence using Western Lightening Plus regent (Perkin Elmer). Cells for (co) immunoprecipitation experiments were seeded in 15-cm dishes and cultured as described, using 6 million cells per immunoprecipitation reaction. For protein ubiquitination, cells were lysed in denaturing buffer (50 mM Tris-HCl, 0.5 mM EDTA and 1% SDS) followed by heating at 95° C. for 10 minutes and then quenched with 9 volumes of quenching buffer (0.5% Triton X-100, 20 mM Tris-HCl (pH 8.0), 137 mM NaCl, 10% glycerol, 2 mM EDTA). Protease inhibitor cocktail (Roche) was added fresh to all buffers. Cell lysates were incubated on a rotator for 30 minutes at 4° C., and then centrifuged at 20,000 g for 15 minutes at 4° C. Supernatants were subsequently incubated with anti-PD-L1 antibody overnight and processed using Dynabeads Protein G for Immunoprecipitation (Thermo Fisher Scientific). The final eluate was processed and Western blotting was performed.

RT4 cells = experiment: Chk1 inhibitor synthetic lethality with beta-lactam antibiotics, RT4 cells; type: cell-based, human
Experimental: as §1

CC(C)(O/N=C(\C(=O)N[C@@H]1C(=O)N2C(C(=O)[O-])=C(C[n+]3ccccc3)CS[C@H]12)c1csc(N)n1)C(=O)O [ceftazidime]
synthetic lethality with Chk1i (ID8agg cells): induce synthetic lethality
expression of PD-L1 in cancer cells (PD-L1): decreased expression of PD-L1
PD-L1 dependence of synthetic lethality (RT4 cells; FIG. 47B): PD-L1 dependent
synthetic lethality with Chk1i (RT4 cells; RT4 cells, Chk1i rabusertib): induce synthetic lethality
